{
  "source": "patent US20050239884A1",
  "about": "“Compositions comprising hmg-coa reductase inhibitor” (priority 2002, published 2005)",
  "test": "degradation kinetics of fluvastatin in aqueous solution at various pH",
  "type": "physicochemical",
  "note": "Where a name gives a salt, the structure may show the parent alone.",
  "data": [
    {"smiles": "CC(C)n1c(/C=C/C(O)CC(O)CC(=O)O)c(-c2ccc(F)cc2)c2ccccc21", "note": "(stereo not drawn) [fluvastatin, R*,S*-(E)-(±)-7-[3-(4-fluorophenyl)-1-(1-methyl-ethyl)-1H-indol-2-yl]-3,5-dihydroxy-6-heptenoic acid, sodium salt]", "values": [
      {"measurement": "% fluvastatin remaining at 37° C. after 1 hour", "setting": "pH 1.0, 37° C.", "result": 10.9, "unit": "%"},
      {"measurement": "% fluvastatin remaining at 37° C. after 24 hrs", "setting": "pH 1.0, 37° C.", "result": 0, "unit": "%"},
      {"measurement": "% fluvastatin remaining at 37° C. after 1 hour", "setting": "pH 4.0, 37° C.", "result": 86.7, "unit": "%"},
      {"measurement": "% fluvastatin remaining at 37° C. after 24 hrs", "setting": "pH 4.0, 37° C.", "result": 25.2, "unit": "%"},
      {"measurement": "% fluvastatin remaining at 37° C. after 1 hour", "setting": "pH 6.0, 37° C.", "result": 99.6, "unit": "%"},
      {"measurement": "% fluvastatin remaining at 37° C. after 24 hrs", "setting": "pH 6.0, 37° C.", "result": 97.1, "unit": "%"},
      {"measurement": "% fluvastatin remaining at 37° C. after 1 hour", "setting": "pH 7.8, 37° C.", "result": 98.3, "unit": "%"},
      {"measurement": "% fluvastatin remaining at 37° C. after 24 hrs", "setting": "pH 7.8, 37° C.", "result": 98.0, "unit": "%"}
    ]}
  ]
}
